Test results reported in US20240131027A1, “PHARMACEUTICAL COMPOSITION COMPRISING NOVEL SD911 COMPOUND AS ACTIVE INGREDIENT FOR PREVENTION OR TREATMENT OF TRANSPLANT REJECTION” (THE CATHOLIC UNIVERSITY OF KOREA INDUSTRY-ACADEMIC …, priority 2021, published 2024).

Key:
[1] = test system: CD4+T (CD4+), subtype of human immune cells; experiment: CD4 positive cell infiltration in renal tissue by immunohistochemical staining, kidney transplantation rejection model; assay type: in vivo; conditions: 300 μg/mice, group injected with PBMCs of patients with kidney transplantation rejection, FIGS. 9A and 9B
Method: (§1) In order to produce a kidney transplantation rejection model, peripheral blood mononuclear cells (PBMCs) derived from transplantation rejection patients (kidney transplantation rejection patients) were intravascularly injected at a cell concentration of 5×10^6/mice, and then after 3 weeks, engraftment of transplantation rejection patient cells in the blood was confirmed, and a kidney transplantation rejection model was constructed. As a control group, normal human PBMCs were injected (FIG. 6).
(§2) At 3 weeks after PBMC administration to the kidney transplantation rejection model prepared in Example 4-1, the mice were treated with physiological saline (vehicle) and SD911 (300 μg/mice) and sacrificed at 4 weeks and then the kidneys of the mice were extracted.
(§3) Immunohistochemical staining was performed to confirm whether CD4+T (CD4+), subtype of human immune cells, has been infiltrated in the renal tissue extracted in Example 4-2. The extracted tissue was fixed with formalin, and then embedded in paraffin to generate slices with a thickness of 5 μm. In order to observe immune cells in the tissue, immunohistochemical analysis was performed by reacting with a human CD4 antibody on the slice slide.

[2] = test system: kidney transplantation rejection model; experiment: Cell infiltration and kidney damage (H&E) in kidney transplantation rejection model; assay type: in vivo; conditions: 300 μg/mice, compared with the vehicle group, FIGS. 8A and 8B
Method: as §1, with “6). At 3 weeks after PBMC administration to the kidney transplantation rejection model prepared in Example 4-1, the mice were treated with physiological saline (vehicle) and SD911 (300 μg/mice) and sacrificed at 4 weeks and then the kidneys of the mice were extracted.” for “6).”

[3] = test system: T cell subtypes (Th1, Th2, Th17, Treg); experiment: T cell subtype analysis by flow cytometry of spleen immune cells in skin transplantation model; assay type: in vivo; conditions: 200 μg/mice, spleen after 5 days, compared to control group
From the text: (§4) In order to confirm A therapeutic effect of SD911 of the present invention on transplantation rejection, an allogenic skin transplantation animal model was used. Specifically, as the allogenic skin transplantation animal model, the tail skins of male donor […] mice (Orient Bio Inc.) were exfoliated and transplanted onto the back skins of male recipient BALB/c mice (Orient Bio Inc.). One day before transplant, the recipient mice were divided into two groups, a control group (Saline group) administered intraperitoneally with physiological saline, and an experimental group (SD911 group) administered with SD911 at a concentration of 200 μg/mice.
Some of the recipient mice that had undergone the skin transplant were humanely sacrificed after 5 days, the spleens were extracted, and immune cells were isolated from the spleens. In order to analyze T cell subtypes in the isolated immune cells, flow cytometry was performed, and to identify pro-inflammatory T cells, the number of CD4+, IFN+, IL4+ and IL17+ positive cells was analyzed. In addition, regulatory T cells (Treg) were identified as CD4+CD25+Foxp3+ positive cells.

[4] = test system: immune cells isolated from the spleens of normal C57/BL6 mice; experiment: Suppression of SDF1-induced migration of spleen immune cells in trans wells; assay type: cell-based; conditions: SD911 20 μM; SDF1 20 ng/ml in lower compartment; FIGS. 1A and 1B
Method: The present inventors screened a novel compound SD911 by using activity inhibition analysis of inflammatory cytokines in immune cells of a sphingosin 1-phosphate lyase (SPL) inhibitor, and tried to confirm an immune cell migration inhibitory effect of the screened SD911. Specifically, single cells (immune cells) were isolated from the spleens of normal C57/BL6 mice, and the isolated immune cells were cultured in […] trans wells (upper compartment). For migration of the cultured immune cells, stromal cell-derived factor 1 (SDF1) was treated at a concentration of 20 ng/ml to stimulate the lower compartment. The immune cells moved to the lower compartment by stromal cell-derived factor 1 (SDF1), and at this time, whether the migration was inhibited by SD911 was analyzed.

[5] = test system: human leukocyte antigen (HLA); experiment: HLA inhibition in IFNγ-treated kidney organoids (in vitro rejection model); assay type: cell-based; conditions: 50 μM SD911; kidney organoids from WTC-11 iPSC treated with IFNγ; FIG. 4
Method: (§5) WTC-11 cells, standard normal human induced pluripotent stem cells (iPSC) were differentiated into kidney organoids and treated with IFNγ, a cytokine known to induce transplantation rejection to construct an in vitro rejection model increasing human leukocyte antigen (HLA). Thereafter, the constructed kidney organoids were treated with 50 μM of SD911.

[6] = test system: allogenic skin transplantation animal model; experiment: Skin transplant viability in allogenic skin transplantation animal model; assay type: in vivo; conditions: 200 μg/mice
From the text: as §4
The skin changes of the control group or the experimental group (SD911 group) treated with SD911 at a concentration of 200 μg/mice were observed daily, and the viability was calculated by calculating the rejection when scab formation or skin atrophy of 70% or more occurred on the transplanted skin. A drug administration schedule was illustrated in FIG. 2A.

IL-17 = IL-17 positive cell infiltration in renal tissue by immunohistochemical staining, kidney transplantation rejection model; assay type: in vivo; conditions: 300 μg/mice, group injected with PBMCs of patients with kidney transplantation rejection, FIGS. 10A and 10B
Method: as §1, §2
as §3, with “whether IL-17, an inflammatory cytokine,” for “whether CD4+T (CD4+), subtype of human immune cells,”, “infiltrated into” for “infiltrated in”, “human IL-17” for “human CD4”

kidney organoids = experiment: Flow cytometry of nephron marker double positive cells in cytokine-treated kidney organoids; assay type: cell-based, human; conditions: SD911 50 μg/mL; TNF-α and INFγ treated kidney organoids; FIGS. 5A to 5F
Method: as §5
In the kidney organoids prepared in Example 3-1, when treated with the cytokines TNF-α and INFγ and when treated with SD911 at a concentration of 50 μg/mL, changes in cell patterns were analyzed by flow cytometry. Specifically, the patterns of nephron markers PODXL, LTL, ECAD and double positive cells in kidney organoids were analyzed.

Structure (SMILES): C[C@@H]1CN(c2nnc(Oc3ccccc3)c3ccccc23)CCN1c1ccc(C#N)cn1 [SD911, 6-((R)-2-methyl-4-(1-phenoxyphthalazin-4-yl)piperazin-1-yl)pyridine-3-carbonitrile]
- infiltration of CD4-positive cells [1]: significantly reduced
- kidney damage [2]: suppressed
- human PBMC infiltration ([2]; glomerulus): suppressed
- number of Th1 cells ([3]; FIG. 3A): significantly decreased
- number of Th2 cells ([3]; FIG. 3B): significantly decreased
- number of Th17 cells ([3]; FIG. 3C): significantly decreased
- Treg (CD4+CD25+Foxp3+ positive cells) ([3]; FIG. 3D): increased
- migration of immune cells induced by SDF1 [4]: blocked
- HLA increased by IFNγ [5]: suppressed
- viability of the transplanted skin ([6]; compared to control (Saline) group, FIG. 2B): significantly increased
- survival time of the transplanted skin ([6]; compared to control group, FIG. 2C): significantly increased
- infiltration of IL-17-positive cells (IL-17): significantly reduced
- positive cell ratio of the nephron marker (PODXL, LTL, ECAD double positive cells) (kidney organoids): significantly decreased
